According to paper PMC9758846, “Dinuclear and mononuclear metal(II) polypyridyl complexes against drug-sensitive and drug-resistant Plasmodium falciparum and their mode of action” (Malaria Journal, 2022):
Values joined by “and” are separate entries in the source; they are usually repeats but may differ in a detail not shown here. Equal entries are not always repeated. Where two headings read alike, the source gives them in different places.

Assays:
[1] = biological target: Pf3D7 20S proteasome caspase-like (C-L) site (Plasmodium falciparum, UniProt Q8I0U7); assay: 20S proteasome inhibition assay using parasite lysate; format: biochemical; settings: Suc-LLE-AMC, 30 min
Pf3D7 20S proteasome caspase-like (C-L) site, sequence (Q8I6T3 entry or part of it): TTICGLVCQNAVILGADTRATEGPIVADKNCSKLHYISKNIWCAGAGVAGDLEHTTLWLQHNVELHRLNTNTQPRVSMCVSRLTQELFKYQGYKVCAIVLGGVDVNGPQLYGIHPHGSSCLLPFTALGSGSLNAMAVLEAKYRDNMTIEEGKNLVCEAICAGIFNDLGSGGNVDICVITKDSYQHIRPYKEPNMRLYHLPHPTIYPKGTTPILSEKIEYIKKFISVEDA
Pf3D7 20S proteasome caspase-like (C-L) site, sequence (Q8I0U7 entry or part of it): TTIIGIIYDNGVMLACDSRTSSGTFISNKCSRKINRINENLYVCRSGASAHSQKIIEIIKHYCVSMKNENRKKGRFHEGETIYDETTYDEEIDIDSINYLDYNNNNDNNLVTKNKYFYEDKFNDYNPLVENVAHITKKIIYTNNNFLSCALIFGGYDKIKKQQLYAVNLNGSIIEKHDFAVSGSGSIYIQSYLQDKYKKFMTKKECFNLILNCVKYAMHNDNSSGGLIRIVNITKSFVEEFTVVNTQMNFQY
Procedure: (§1) To harvest P. falciparum parasites, intraerythrocytic Pf3D7 and Pf5202 were collected in trophozoite and early schizont stages. Red blood cells were lysed in 0.15% (w/v) saponin lysis buffer for 10 min at 37 °C. After lysis, the parasite pellet was washed once with PBS buffer by centrifuging at 1600 rpm for 5 min. Saponin lysis buffer was added once again to remove all the red blood cells for 10 min at 37 °C, followed by washing with PBS twice and immediately used or kept at − 80 °C. To prepare parasite lysates for proteasome purification, parasite pellet was resuspended with 100 µl of pre-cooled Pierce™ RIPA buffer. A mild protein extraction method was used to prepare parasite extracts. The resuspended parasites were passed 20 times through a needle with a diameter of 0.4 mm in a syringe on ice to lyse the parasite. After 15 min centrifugation at 13,000 xg at 4 °C, the supernatant was removed. Protein concentration was determined by the Bradford assay. The activities of 3 proteolytic sites were determined by fluorescence assay using fluorogenic peptide substrates (Suc-LLVY-AMC for chymotrypsin-like, Boc-LRR-AMC for trypsin-like and Suc-LLE-AMC for caspase-like) Proteasome activities were determined by monitoring the substrate hydrolysis for 30 min at 37 °C with 340 nm excitation and 465 nm emission wavelength. Activity of each proteolytic site were calculated, and the IC50 values were determined from the non-linear regression analysis. VR23 proteasome inhibitor was used as positive control.

[2] = biological target: Pf5202 20S proteasome caspase-like (C-L) site (Plasmodium falciparum, UniProt Q8I0U7); assay: as above; format: biochemical; settings: Suc-LLE-AMC, 30 min
Pf5202 20S proteasome caspase-like (C-L) site, sequence (Q8I0U7 entry or part of it): as above
Pf5202 20S proteasome caspase-like (C-L) site, sequence (Q8I6T3 entry or part of it, further chain): as the sequence (Q8I6T3 entry or part of it) above
Procedure: as §1

[3] = biological target: Pf5202 20S proteasome chymotrypsin-like (CT-L) site (Plasmodium falciparum, UniProt Q8IJT1); assay: as above; format: biochemical; settings: Suc-LLVY-AMC, 30 min
Pf5202 20S proteasome chymotrypsin-like (CT-L) site, sequence (Q8IJT1 entry or part of it): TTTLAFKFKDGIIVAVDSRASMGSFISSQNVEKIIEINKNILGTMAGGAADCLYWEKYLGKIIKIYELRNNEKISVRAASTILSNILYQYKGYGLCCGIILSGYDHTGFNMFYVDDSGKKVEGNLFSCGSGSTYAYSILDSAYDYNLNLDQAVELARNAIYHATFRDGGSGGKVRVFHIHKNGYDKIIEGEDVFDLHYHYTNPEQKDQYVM
Procedure: as §1

[4] = biological target: Pf5202 20S proteasome trypsin-like (T-L) site (Plasmodium falciparum, UniProt Q8I6T3); assay: as above; format: biochemical; settings: for IC50: parasite lysate, Boc-LRR-AMC, 30 min
Pf5202 20S proteasome trypsin-like (T-L) site, sequence (Q8I6T3 entry or part of it): as the sequence (Q8I6T3 entry or part of it) above
Procedure: as §1

[5] = biological target: Pf3D7 20S proteasome trypsin-like (T-L) site (Plasmodium falciparum, UniProt Q8I6T3); assay: as above; format: biochemical; settings: Boc-LRR-AMC, 30 min
Pf3D7 20S proteasome trypsin-like (T-L) site, sequence (Q8I6T3 entry or part of it): as above
Procedure: as §1

[6] = biological target: Pf3D7 20S proteasome chymotrypsin-like (CT-L) site (Plasmodium falciparum, UniProt Q8IJT1); assay: as above; format: biochemical; settings: Suc-LLVY-AMC, 30 min
Pf3D7 20S proteasome chymotrypsin-like (CT-L) site, sequence (Q8IJT1 entry or part of it): as the sequence (Q8IJT1 entry or part of it) above
Procedure: as §1

[7] = PNDA assay of •OH radicals from reaction with H2O2; settings: for Generation of ·OH radicals (in words): equimolar test compound with excess H2O2; for Concentration of •OH radical: 30 µM compound with excess H2O2
Procedure: A previously reported spectrometric assay using PNDA was used to quantify the amount of reactive oxygen species (ROS), viz. •OH radicals, produced by the reaction of metal(II) complexes with hydrogen peroxide in borate buffer at pH 7.5 [24–26]. The percentage of PNDA bleaching and the concentration of •OH produced were determined.

[8] = system: B+ blood red blood cells (RBC); assay: In vitro haemolytic assay; format: cell-based, human; settings: up to 25 µM; 72 h
Procedure: Fresh B+ blood was washed with RPMI1640 medium containing of 30 µg/mL gentamicin (Gibco) and centrifuged at 1000 xg for 10 min three times. The percentage of haemolysis was determined spectroscopically using 5% haematocrit containing test compound at increasing concentration and incubated for 72 h at 37 °C [19, 20]. Untreated blood acted as negative control while blood treated with sterile distilled water acted as positive control (for 100% haemolysis).

[9] = system: Plasmodium falciparum IPC5202 (Pf5202); assay: In vitro anti-malarial activity using SYBR Green I nucleic acid dye; format: cell-based; settings: 72 h incubation, read-out: IC50 of Pf5202
Procedure: (§2) The drug-sensitive strain of P. falciparum 3D7 (Pf3D7) was obtained from the Department of Science, Monash University, Malaysia and cultured as previously described. The artemisinin-resistant strain of P. falciparum IPC5202 (Pf5202) was obtained from BEI Resources and cultured as mentioned in the product sheet. Both strains were maintained in sealed flask at 37 °C in a humidified atmosphere of 5% O2, 5% CO2 and 90% N2. All buffer stock solutions for biological assays were autoclaved at 121 °C for 15 min.
(§3) Previously reported anti-malarial assay was used with slight modification using 1% parasitaemia (ring-stage) and 5% haematocrit treated with test compounds at increasing concentration and incubated for 72 h at 37 °C [21–23]. After the incubation, the assay was terminated by freeze/thaw cycle (− 80 °C overnight before thawing for 2 h) before the addition of lysis buffer containing SYBR Green I dye into each well and mixed thoroughly using the belly dancer for 30 min in the dark. Chloroquine diphosphate salt and artemisinin were used as standard drugs. The fluorescence signal was quantified at 485 nm excitation wavelength and 528 nm emission wavelength. IC50 values of each test compound was determined from a dose response curve by non-linear regression analysis.

[10] = system: Plasmodium falciparum 3D7 (Pf3D7); assay: as above; format: cell-based; settings: 72 h incubation, read-out: IC50 of Pf3D7
Procedure: as §2, §3

Pf3D7 = assay: Intracellular ROS level using DCFH-DA; format: cell-based, Plasmodium falciparum
Procedure: (§4) After incubation, packed cells were washed with phosphate buffer saline (PBS) solution. […] The data was expressed as fold change between amount of ROS produced by treated P. falciparum against untreated P. falciparum. Normalization was done with the percentage of parasite viability obtained at each condition. Hydrogen peroxide was used as positive control.

Pf5202 = assay: Intracellular ROS level using DCFH-DA; format: cell-based, Plasmodium falciparum
Procedure: as §4

[11] = Solution stability by molar conductivity and visible absorptivity; format: physicochemical; settings: 24, 48 and 72 h; room temperature
Procedure: Series of 10 mM stock solutions were prepared by dissolving the compounds in their respective solvents: phen and 4,4′-bipy in 95% ethanol; Cu(NO3)2·3H2O, Zn(NO3)2·6H2O, (1) and (2) in double distilled water; (3) and (4) in DMSO. All the stock solutions were further diluted with double distilled water to obtain 10 mL of 30 µM, 1 mM and 5 mM for their respective studies, viz. 30 µM for ultraviolet spectral studies, 1 mM for conductivity measurement and 5 mM for visible spectral studies. For the water-DMSO solutions of both complexes (3) and (4), the 30 µM, 1 mM and 5 mM solutions have […], 10% DMSO and 50% DMSO respectively. The absorbance at λmax and conductance were of the aqueous solutions were measured at 0, 24, 48 and 72 h. The molar absorptivity and molar conductivity of the metal(II) complex solutions and their precursors were then calculated.

| Compound | IC50 [1] [µM] | IC50 [2] [µM] | IC50 [3] [µM] | IC50 [4] [nM] | IC50 [5] [µM] | IC50 [6] [µM] | Generation of ·OH radicals (in words) [7] | Haemolysis on B+ blood (in words) [8] | fold change in ROS (Pf3D7; 24 h, 25.0 µM) [fold] | fold change in ROS (Pf3D7; 48 h, 0.2 µM) [fold] | fold change in ROS (Pf3D7; 48 h, 1.0 µM) [fold] | fold change in ROS (Pf3D7; 48 h, 5.0 µM) [fold] | fold change in ROS (Pf3D7; 48 h, 25.0 µM) [fold] | fold change in ROS (Pf3D7; 72 h, 25.0 µM) [fold] | fold change in ROS (Pf5202; 24 h, 1.0 µM) [fold] | fold change in ROS (Pf5202; 48 h, 5.0 µM) [fold] | fold change in ROS (Pf5202; 48 h, 25.0 µM) [fold] | fold change in ROS (Pf5202; 72 h, 1.0 µM) [fold] | fold change in ROS (Pf5202; 72 h, 5.0 µM) [fold] | fold change in ROS (Pf5202; 72 h, 25.0 µM) [fold] | further results |
| --- | --- | --- | --- | --- | --- | --- | --- | --- | --- | --- | --- | --- | --- | --- | --- | --- | --- | --- | --- | --- | --- |
| O=[N+]([O-])c1ccc(S(=O)(=O)N2CCN(c3ccnc4cc(Cl)ccc34)CC2)c([N+](=O)[O-])c1 [VR23, reference compound] | > 5 | > 5 | > 5 | 860 ± 90 | 0.78 ± 0.11 | > 5 | – | – | – | – | – | – | – | – | – | – | – | – | – | – | – |
| [Zn(phen)(NO3)-4,4′-bipy-Zn(phen)(NO3)](NO3)2·2H2O [Complex 4] | > 25 | > 25 | > 25 | > 25000 | > 25 | > 25 | did not generate any ·OH radicals | no haemolysis | 0.31 ± 0.31 | 0.52 ± 0.26 | 0.77 ± 0.58 | 0.85 ± 0.40 | 0.42 ± 0.19 | 1.19 ± 0.57 | 0.44 ± 0.25 | 0.43 ± 0.09 | 0.39 ± 0.36 | 0.45 ± 0.32 | 0.33 ± 0.01 | 0.13 ± 0.05 | IC50 [9]: > 100 µM; IC50 [10]: 3.9 µM and 3.93 µM; fold change in ROS (Pf3D7; 72 h, 0.2 µM): 1.52 ± 0.07 fold; fold change in ROS (Pf3D7; 72 h, 1.0 µM): 1.52 ± 0.14 fold; fold change in ROS (Pf3D7; 72 h, 5.0 µM): 1.85 ± 0.27 fold |
| O.O.O=[N+]([O-])[O-].O=[N+]([O-])[O-].[Zn+2].c1cnc2c(c1)ccc1cccnc12.c1cnc2c(c1)ccc1cccnc12 [Complex 2, [Zn(phen)2](NO3)2·2H2O] | – | – | – | – | – | – | did not generate any ·OH radicals | no haemolysis | 2.61 ± 0.12 | 1.9 ± 0.38 | 2.13 ± 0.21 | 2.95 ± 0.18 | 2.48 ± 0.26 | 0.70 ± 0.05 | 1.10 ± 0.09 | – | – | 0.34 ± 0.04 | 0.16 ± 0.04 | – | Concentration of •OH radical ([7]; 2 h): 0.01 ± 0.08 µM; Concentration of •OH radical ([7]; 4 h): 0.08 ± 0.03 µM; Concentration of •OH radical ([7]; 24 h): 0.20 ± 0.16 µM; Concentration of •OH radical ([7]; 48 h): 0.21 ± 0.05 µM; Concentration of •OH radical ([7]; 72 h): 0.28 ± 0.08 µM; Stability of aqueous solution (molar conductivity; for (1) also visible molar absorptivity) [11]: remains practically unchanged; fold change in ROS (Pf3D7; 24 h, 0.2 µM): 0.07 ± 0.08 fold; fold change in ROS (Pf3D7; 24 h, 1.0 µM): 0.39 ± 0.19 fold; fold change in ROS (Pf3D7; 24 h, 5.0 µM): 0.45 ± 0.10 fold; fold change in ROS (Pf5202; 24 h, 0.2 µM): 1.07 ± 0.05 fold; fold change in ROS (Pf5202; 24 h, 5.0 µM): 1.00 ± 0.02 fold; fold change in ROS (Pf5202; 24 h, 25.0 µM): 1.04 ± 0.06 fold; fold change in ROS (Pf5202; 72 h, 0.2 µM): 0.00 ± 0.03 fold |
| c1cnc2c(c1)ccc1cccnc12 [phen, 1,10-phenanthroline, reference compound] | > 25 | – | – | 1790 ± 660 | 4.47 ± 0.6 | – | did not generate any ·OH radicals | – | – | 3.10 ± 0.98 | 2.91 ± 0.05 | 4.47 ± 0.71 | 6.09 ± 0.91 | – | 1.08 ± 0.09 | 1.40 ± 0.13 | 1.32 ± 0.31 | 1.17 ± 0.44 | 1.08 ± 0.51 | 1.21 ± 1.25 | Concentration of •OH radical ([7]; 24 h): 0.15 ± 0.07 µM; Concentration of •OH radical ([7]; 48 h): 0.36 ± 0.17 µM; Concentration of •OH radical ([7]; 72 h): 0.30 ± 0.23 µM; IC50 ([9]; Plasmodium falciparum): > 100 µM; IC50 ([10]; Plasmodium falciparum, 3D7): 4.27 ± 0.05 µM; Factor by which T-L site of Pf5202 is inhibited better than that of Pf3D7 ([4]; ratio of T-L IC50 values): about 2.5 ×; fold change in ROS (Pf5202; 24 h, 0.2 µM): 1.06 ± 0.06 fold; fold change in ROS (Pf5202; 24 h, 5.0 µM): 0.91 ± 0.05 fold; fold change in ROS (Pf5202; 24 h, 25.0 µM): 0.80 ± 0.04 fold; fold change in ROS (Pf5202; 48 h, 0.2 µM): 1.78 ± 0.78 fold; fold change in ROS (Pf5202; 48 h, 1.0 µM): 1.31 ± 0.21 fold; fold change in ROS (Pf5202; 72 h, 0.2 µM): 1.35 ± 0.71 fold |
